What was measured:
Format in all cases: biochemical
Conditions in all cases: inhibit 50% of activity at 50 μM
JAK1 = molecular target: T1, JAK1 (Homo sapiens, UniProt P23458); assay: JAK1 kinase domain capture-based ELISA kinase assay
T1 construct: The kinase domain of humanJAK1 was amplified from U937mRNA; His tag (from pFastBac HTb vector; nickel chelate purification) (N); made in house; host or cells: baculovirus; virus made in Sf9, large-scale expression in High Five insect cells
Procedure: (§1) For screening purposes, compounds were diluted in 96 well plates at a concentration of 50 μM or 20 μM. Plates were warmed at 37° C. for 30 minutes before assay.
The kinase domain of humanJAK1 was amplified from U937mRNA using the polymerase chain reaction with the following primers: […]
JAK1 PCR products were cloned into the pFastBac HTb expression vector (Gibco) via the Xho I and Kpn I sites. The JAK1 plasmid was then transformed into competent DH10Bac cells (Gibco), and the recombinant baculovirus produced prepared for transfection into Sf9 insect cells.
(§2) Baculovirus preparations from each of the JAK family members were infected into five litres of High Five cells (Invitrogen) grown in High Five serum free medium (Invitrogen) to a cell density of approximately 1-2×10^6 cells/ml. Cells are infected with virus at a MOI of 0.8-3.0. Cells were harvested and lysed. JAK kinase domains were purified by affinity chromatography on a Probond (Invitrogen) nickel chelate affinity column.
(§3) The biotinylated substrate biotin-EGPWLEEEEEAYGWMDF-NH2 (SEQ ID NO:9) (final concentration 5 μM) was used as substrate, and tyrosine phosphorylation was quantitated following transfer to an avidin coated ELISA plate using peroxidase-linked anti-phospho-tyrosine antibody PY20.
(§4) Inhibitors were added to the assays fifteen minutes prior to the addition of ATP. Inhibitors were added in aqueous DMSO, with DMSO concentrations never exceeding 1%.

JAK3 = molecular target: T2, JAK3 (Homo sapiens, UniProt P52333); assay: JAK3 kinase domain capture-based ELISA kinase assay
T2 construct: The kinase domain of humanJAK3 was amplified from U937mRNA; His tag (from pFastBac HTb vector; nickel chelate purification) (N); made in house; host or cells: baculovirus; virus made in Sf9, large-scale expression in High Five insect cells
Procedure: as §1
The kinase domain of humanJAK3 was amplified from U937mRNA using the polymerase chain reaction with the following primers: […]
JAK3 PCR products were cloned into the pFastBac HTb expression vector (Gibco) via the Xho I and Kpn I sites. The JAK3 plasmid was then transformed into competent DH10Bac cells (Gibco), and the recombinant baculovirus produced prepared for transfection into Sf9 insect cells.
as §2, §3, §4

TYK2 = molecular target: T3, TYK2 (Homo sapiens, UniProt P29597); assay: TYK2 kinase domain capture-based ELISA kinase assay
T3 construct: The kinase domain of humanTYK2 was amplified from A549 mRNA; His tag (from pBlueBacHis2A vector; nickel chelate purification) (N); made in house; host or cells: baculovirus; virus made in Sf9, large-scale expression in High Five insect cells
T3 sequence (P29597 897-1176 limits assumed): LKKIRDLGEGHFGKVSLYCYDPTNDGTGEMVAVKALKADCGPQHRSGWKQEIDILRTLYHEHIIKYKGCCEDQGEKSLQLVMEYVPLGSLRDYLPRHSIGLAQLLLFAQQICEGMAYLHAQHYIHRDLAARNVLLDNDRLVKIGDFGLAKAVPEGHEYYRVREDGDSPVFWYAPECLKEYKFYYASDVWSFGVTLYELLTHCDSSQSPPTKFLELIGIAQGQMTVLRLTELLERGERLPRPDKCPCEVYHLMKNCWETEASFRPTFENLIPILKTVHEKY
Procedure: as §1
The kinase domain of humanTYK2 was amplified from A549 mRNA using the polymerase chain reaction with the following primers: […]
TYK2 PCR products were cloned into pBlueBacHis2A (Invitrogen) via the EcoRI site. The recombinant TYK2 baculovirus produced was prepared for transfected into Sf9 insect cells.
as §2, §3, §4

JAK2 = molecular target: T4, JAK2 (Homo sapiens, UniProt O60674); assay: JAK2 kinase domain capture-based ELISA kinase assay
T4 construct: The kinase domain of humanJAK2 was amplified from U937mRNA; His tag (from pFastBac HTc vector; nickel chelate purification) (N); made in house; host or cells: baculovirus; virus made in Sf9, large-scale expression in High Five insect cells
Procedure: as §1
The kinase domain of humanJAK2 was amplified from U937mRNA using the polymerase chain reaction with the following primers: […]
JAK2 PCR products were cloned into the pFastBac HTc expression vector (Gibco) via the Sal I and Not I sites. The JAK2 plasmid was then transformed into competent DH10Bac cells (Gibco), and the recombinant baculovirus produced prepared for transfection into Sf9 insect cells.
as §2, §3, §4

Measured: IC50

T2 sequence (P52333 822-1111 limits assumed): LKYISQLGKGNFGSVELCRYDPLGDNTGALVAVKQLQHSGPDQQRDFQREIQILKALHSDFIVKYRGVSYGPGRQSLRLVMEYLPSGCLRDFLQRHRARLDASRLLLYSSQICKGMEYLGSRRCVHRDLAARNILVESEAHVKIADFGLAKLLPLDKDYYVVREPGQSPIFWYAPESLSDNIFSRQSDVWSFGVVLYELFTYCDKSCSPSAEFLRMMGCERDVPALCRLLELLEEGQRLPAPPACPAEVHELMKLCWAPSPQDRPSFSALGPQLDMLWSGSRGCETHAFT
T4 sequence (O60674 849-1124 limits assumed): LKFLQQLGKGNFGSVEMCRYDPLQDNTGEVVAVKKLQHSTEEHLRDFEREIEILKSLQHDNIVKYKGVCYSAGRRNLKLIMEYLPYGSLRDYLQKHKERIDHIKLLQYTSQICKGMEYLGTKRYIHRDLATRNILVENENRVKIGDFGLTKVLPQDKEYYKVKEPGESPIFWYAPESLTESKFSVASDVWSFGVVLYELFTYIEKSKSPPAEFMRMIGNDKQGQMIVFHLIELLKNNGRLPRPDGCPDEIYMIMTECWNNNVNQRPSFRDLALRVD
T1 sequence (P23458 875-1153 limits assumed): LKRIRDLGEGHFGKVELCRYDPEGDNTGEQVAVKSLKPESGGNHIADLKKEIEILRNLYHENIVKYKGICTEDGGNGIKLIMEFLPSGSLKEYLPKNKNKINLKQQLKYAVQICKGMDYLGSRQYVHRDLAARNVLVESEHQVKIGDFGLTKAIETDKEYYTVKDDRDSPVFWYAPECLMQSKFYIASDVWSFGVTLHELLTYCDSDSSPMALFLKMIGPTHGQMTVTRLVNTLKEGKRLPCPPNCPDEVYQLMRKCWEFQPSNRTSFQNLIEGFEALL

COc1cncc(-c2cncc(N[C@H](CO)C(C)C)n2)c1 [CYT21507]
< 50 µM: JAK1; Table 3 | JAK3; Table 3 | TYK2; Table 3 | JAK2; Table 3

COc1cncc(-c2cncc(NCc3ccc(F)cc3)n2)c1 [CYT24108]
< 50 µM: JAK1; Table 3 | JAK3; Table 3 | TYK2; Table 3 | JAK2; Table 3

COc1cncc(-c2cncc(N[C@@H](C)c3ccccc3)n2)c1 [CYT24510]
< 50 µM: JAK1; Table 3 | JAK3; Table 3 | TYK2; Table 3 | JAK2; Table 3

COc1cncc(-c2cncc(NCc3ccccc3)n2)c1 [CYT24605]
< 50 µM: JAK1; Table 3 | JAK3; Table 3 | TYK2; Table 3 | JAK2; Table 3

c1ccc(CNc2cncc(-c3cccnc3)n2)cc1 [CYT24803]
< 50 µM: JAK1; Table 3 | JAK3; Table 3 | TYK2; Table 3 | JAK2; Table 3

COc1cc(-c2cncc(NCc3ccccc3)n2)cc(OC)c1OC [CYT25209]
< 50 µM: JAK1; Table 3 | JAK3; Table 3 | TYK2; Table 3 | JAK2; Table 3

OCc1ccccc1-c1cncc(NCc2ccccc2)n1 [CYT25210]
< 50 µM: JAK1; Table 3 | JAK3; Table 3 | TYK2; Table 3 | JAK2; Table 3

COc1cc(-c2cncc(NCCO)n2)cc(OC)c1OC [CYT28608]
< 50 µM: JAK1; Table 3 | JAK3; Table 3 | TYK2; Table 3 | JAK2; Table 3

C[C@@H](Nc1cncc(-c2cccc(N)c2)n1)c1ccccc1 [CYT31106]
< 50 µM: JAK1; Table 3 | JAK3; Table 3 | TYK2; Table 3 | JAK2; Table 3

CC(=O)Nc1cccc(-c2cncc(N[C@H](C)c3ccccc3)n2)c1 [CYT32102]
< 50 µM: JAK1; Table 3 | JAK3; Table 3 | TYK2; Table 3 | JAK2; Table 3

COc1cc(-c2cncc(N[C@H](C)c3ccccc3)n2)cc(OC)c1OC [CYT32107]
< 50 µM: JAK1; Table 3 | JAK3; Table 3 | TYK2; Table 3 | JAK2; Table 3

COc1cc(-c2cncc(Nc3ccc(C#N)cc3)n2)cc(OC)c1OC [CYT32302]
< 50 µM: JAK1; Table 3 | JAK3; Table 3 | TYK2; Table 3 | JAK2; Table 3

Oc1ccc(-c2cncc(N3CCN(Cc4ccccn4)CC3)n2)cc1 [CYT32602]
< 50 µM: JAK1; Table 3 | JAK3; Table 3 | TYK2; Table 3 | JAK2; Table 3

COc1ccc(N2CCN(c3cncc(-c4ccc(CC(N)C(=O)O)cc4)n3)CC2)cc1OC (stereo not drawn) [CYT34205]
< 50 µM: JAK1; Table 3 | JAK3; Table 3 | TYK2; Table 3 | JAK2; Table 3

CN(C)CCNC(=O)c1cccc(-c2cncc(N3CCN(c4ccccc4C#N)CC3)n2)c1 [CYT34503]
< 50 µM: JAK1; Table 3 | JAK3; Table 3 | TYK2; Table 3 | JAK2; Table 3

c1cc(-c2cn3ccnc3c(Nc3ccc(N4CCOCC4)cc3)n2)ccn1 [drawing 61]
< 50 µM: JAK1; Table 5 | JAK3; Table 5 | TYK2; Table 5 | JAK2; Table 5

c1cncc(-c2cn3ccnc3c(Nc3ccc(N4CCOCC4)cc3)n2)c1 [drawing 62]
< 50 µM: JAK1; Table 5 | JAK3; Table 5 | TYK2; Table 5 | JAK2; Table 5

OCc1ccccc1-c1cn2ccnc2c(Nc2ccc(N3CCOCC3)cc2)n1 [drawing 64]
< 50 µM: JAK1; Table 5 | JAK3; Table 5 | TYK2; Table 5 | JAK2; Table 5

CCN(CCO)c1ccc(Nc2nc(-c3cccc4ccccc34)cn3ccnc23)cc1 [drawing 68]
< 50 µM: JAK1; Table 5 | JAK3; Table 5 | TYK2; Table 5 | JAK2; Table 5

CCN(CCO)c1ccc(Nc2nc(-c3ccccc3CO)cn3ccnc23)cc1 [drawing 69]
< 50 µM: JAK1; Table 5 | JAK3; Table 5 | TYK2; Table 5 | JAK2; Table 5

Nc1cccc(-c2cn3ccnc3c(Nc3ccccc3)n2)c1 [drawing 71]
< 50 µM: JAK1; Table 5 | JAK3; Table 5 | TYK2; Table 5 | JAK2; Table 5

— patent publication US20060069084A1, “Methods of inhibiting kinases” (priority 2001, published 2006)
